This is an account of results in patent publication US7326717B2, “Pyrimidine n-oxide compounds for stimulating the growth of keratin fibers and/or reducing loss thereof” (L'Oreal, priority 1930, dated 2008).

Each structure is given as a SMILES string.

By % inhibition is commonly meant the change of the read-out against control, counted positive when it falls.

One assay concerns type L calcium-channel. The settings on record: read-out: IC50Ca2+ (concentration that inhibits 50% of the release of Ca2+); cited from earlier work.
Assay [1] has as its system inducible NO-synthase (NOS2). Put plainly: Modulation of the induction of NOS2 on normal human keratinocytes (NO-donor activity, nitrite/nitrate measurement). Format: cell-based. The settings on record: for NO-donating effect: conclusion from the table; for % inhibition: nitrites and nitrates measured. The protocol: The activity of compounds A and A′ on inducible NO-synthase was evaluated in the test described by Heck et al. (J. B. C., Vol. 267, No. 30, 21277-21280, 25 Oct. 1992), test of “Modulation of the induction of NOS2 (Inducible Nitric Oxide Synthase) on normal human keratinocytes”. The aim of this test is to evaluate the final nitrate and nitrite concentration, after stimulation of NO-synthase 2 or application of an NO donor; it is performed by comparison with the stimulation of cytokine-inducible NO-synthase. The final nitrate and nitrite concentration corresponds to the concentration of NO released.
The test is performed on a culture of normal human keratinocytes obtained from samples. The induction of inducible NO-synthase (NOS2) was brought about by the addition of a combination of several cytokines to the culture medium. The test products were applied at three concentrations ranging from […] to 1000 μM.
The following controls were introduced into the test: • A: Positive control (induction of the enzyme on stimulated cells): mixtures of interferon-γ (1000 μ/ml) and of interleukin 1-β (100 μ/ml) corresponding to […]; • B: Basal control of the unstimulated cells (without cytokines), corresponding to […].
To determine the activity of the test products, the amount of stable NO reaction products (nitrites and nitrates) is measured using the “Nitric Colorimetric Assay” kit sold by the company Boehringer under the reference 1756.28.
The compounds were tested at concentrations of 100 μM, 500 μM and 1000 μM in ethanol.

A further assay has as its system lysyl-hydroxylase. The settings on record: described in WO 96/09048; cited from earlier work.
For assay [2], the system named is lysyl-hydroxylase messenger RNA. In words: Inhibition of the expression of LH (RT-PCR) in normal human dermal fibroblasts. It counts as cell-based. The settings on record: for inhibition of the expression of lysyl-hydroxylase messenger RNA: human fibroblasts in culture, compound 1′ at 10 μM; for LH/actine ratio: percentage of expression of LH over β-Actin internal standard; for LH/actine ratio / LH/collagen ratio: control = 100, NHDF treated 6 hours; for LH/collagen ratio: percentage of expression of LH relative to collagen messenger RNA. The protocol:
Normal human dermal fibroblasts (NHDF) are precultured at high density for 48 hours in MEM199 medium (Gibco) supplemented with 1% foetal calf serum and then treated or not treated with compound 1′ or 1 for 6 hours. The cell carpets are then washed with phosphate-buffered saline (PBS) and then frozen in Tri-reagent medium (Sigma). The total RNAs obtained are extracted with Tri-reagent (Sigma) according to the supplier's protocol. A further extraction is performed using chloroform and the RNAs are then precipitated from isopropanol. After removal of the contaminating traces of DNA by treatment with the DNA-free system (Ambion), a reverse transcription of the RNAs into complementary DNA is performed in the presence of oligo dT and the enzyme superscript II (Gibco).
A pair of primers allowing the amplification of specific LH fragments (516 bp; Mahéet al., 1996, Skin Pharmacol. 9, 177-183) and of specific primers of the sequence of collagen I (420 pb) and β-Actin (500 bp, internal reaction standard) were used for the polymerization chain reaction (PCR) with the PCR Supermix system (Gibco) under the following conditions: 94° C. for 2 minutes and then 25 times (95° C.-1 min, 55° C.-1 min, 72° C.-2 min), the chain reaction being terminated by an elongation cycle of 7 minutes at 72° C.
The amplified fragments are then analysed by electrophoresis on agarose gel (1.5%) in the presence of ethidium bromide. The images were captured on GelPrint 2000i (Biophotonics Corp); the densitometric analyses were obtained using the One D-Scan software (Scanalytics).
The results are expressed as a percentage of expression of LH over the β-Actin internal standard (LH/actine) or relative to the collagen messenger RNA (LH/collagen). A reduction of one or of the two percentages indicates a transcriptional inhibition of the relative expression of lysyl hydroxylase and, by analogy, with the molecule 2-4 DPO, (Mahéet al. 1996, Skin Pharmacol. 9. 177-183) a possible use for limiting the abnormal crosslinking of collagen in alopecia.

The mark [3] stands for this setting: 100 μM in ethanol, 100 = cytokine-stimulated control A, 0 = unstimulated control B.

As to `COc1ccc(CCN(C)CCCC(C#N)(c2ccc(OC)c(OC)c2)C(C)C)cc1OC` (centres unmarked) [verapamil], the IC50 in the assay with type L calcium-channel is 38 nM.

For the compound `Nc1nccc(NCCCO[N+](=O)[O-])[n+]1[O-]` [Compound 3], the NO-donating effect result in assay [1] is listed as “have an NO-donating effect”.

As to `Nc1cc[n+]([O-])c(N)n1` [aminexil, 2,4-diaminopyrimidine N-oxide], the “inhibitory activity on the expression of lysyl-hydroxylase” value in the assay with lysyl-hydroxylase is “has inhibitory activity on the expression of lysyl-hydroxylase”.

In the case of `Nc1nccc(NCCCCO[N+](=O)[O-])[n+]1[O-]` [Compound 1], the “% inhibition” value in assay [1] (setting [3]) is recorded as 0%. Moreover, the “% inhibition” value in assay [1] (500 μM in ethanol, 100 = control A, 0 = control B, NE means no effect) is on record as 18.23%. Further, in assay [1], the NO-donating effect result was “have an NO-donating effect”. Further, in assay [2], the “inhibition of the expression of lysyl-hydroxylase messenger RNA” value is listed as “no inhibitory activity”, the LH/actine ratio stood at 123% and the LH/collagen ratio was found to be 133%.

Take `Nc1nccc(NCCO[N+](=O)[O-])[n+]1[O-]` [Compound 2]: the “% inhibition” value in assay [1] (setting [3]) came out at 38.77%. In addition, in assay [1], the NO-donating effect result was “have an NO-donating effect”.

With `Nc1nccc(NCCCCO)[n+]1[O-]` [Compound 1′], in assay [2], the “inhibition of the expression of lysyl-hydroxylase messenger RNA” value was −24% to −36%, the LH/actine ratio was found to be 64% and the LH/collagen ratio stood at 76%.
